Where a name gives a salt, the structure may show the parent alone.
How the values were obtained:
[1] = test system: isolated ventricular myocytes; test: Action potentials in ventricular myocytes isolated ex vivo after 5 weeks of treatment (perforated whole cell patch clamp); design: species or system dog; settings: for APD50 compared to the placebo-treated heart failure group / APD90 compared to normal controls / heart failure induced prolongation of the APD90: 0.5 and 1 Hz
Excerpt: After altogether 5 weeks of treatment the dogs were anaesthetized according to standard veterinary procedures and ex vivo ventricular myocytes were directly isolated from the mid-lateral left ventricular free wall using an isolation procedure described by Kubalova et al., which results in isolation of myocytes from the midmyocardial region. Afterwards the animals were humanely euthanized. Recordings of single cell action potentials and K+ currents were made. See Kubalova et al., Abnormal intrastore calcium signaling in chronic heart failure, Proc Nat Acad Sci 2005; 102: 14104-14109. For measurement of the action potentials myocytes were placed in a laminin coated cell chamber and superfused with a bath solution. Only quiescent myocytes with sharp margins and clear striations were used for the electrophysiological study. Borosilicate glass micropipettes were filled with a pipette solution that was pH adjusted to 7.2. Perforated whole cell patch clamp was used to minimize alterations in the intracellular milieu. Action Potentials (APs) were recorded with the perforated whole cell patch techniques. Action potentials were recorded in isolated ventricular myocytes, which were characterized in the standard manner as the durations to 50% and 90% of repolarization. APs were measured as the average of the last 10 (steady-state) APs, obtained during a train of twenty five APs at each stimulation rate. An average of 2-3 myocytes was measured from each heart failure dog. Action Potentials were recorded in four groups. The following numbers of recordings were obtained and used in the analyzed data (number (n) indicates the number of myocytes): Control (CTRL, untreated, healthy dogs) (n=10) HF-placebo (placebo-treated dogs in heart failure (HF-PL)) (n=17) HF-C-Up bisoprolol, according to conservative up-titration bisoprolol treated dogs in heart failure (n=13) HF-A-Up bisoprolol, according to aggressive up-titration bisoprolol treated dogs in heart failure (n=15) Resting membrane potential was measured at 0.5 Hz and 1 Hz to bracket the physiologic range of resting heart rates (FIG. 1).

[2] = test system: transient outward K+ current (Ito); test: Transient outward K+ current recordings in isolated ventricular myocytes of treated dogs; type: in vivo, dog
Excerpt: (§1) After altogether 5 weeks of treatment the dogs were anaesthetized according to standard veterinary procedures and ex vivo ventricular myocytes were directly isolated from the mid-lateral left ventricular free wall using an isolation procedure described by Kubalova et al., which results in isolation of myocytes from the midmyocardial region. Afterwards the animals were humanely euthanized. Recordings of single cell action potentials and K+ currents were made. See Kubalova et al., Abnormal intrastore calcium signaling in chronic heart failure, Proc Nat Acad Sci 2005; 102: 14104-14109. There are two K+ currents which are expected to modulate the resting membrane potential and the action potential duration, and are known to be altered during heart failure, the inward and the outward K+ currents. The transient outward K+ current, (Ito) was recorded in all four groups and data was recorded and analyzed.

[3] = test system: dogs with pacing-induced heart failure; type: in vivo
Protocol: A study was conducted with two groups of conscious dogs with pacing-induced heart failure to determine the tolerance and potential effects of different doses of bisoprolol fumarate. […] ECG (PQ, QRS, RR, QT, QTcF, and QTcV intervals), echocardiography (left ventricular shortening fraction (LVSF) and systemic arterial blood pressure (SBP, DBP, MAP and pulse pressure) were monitored in the two groups. Heart failure was produced by rapid ventricular pacing to reduce left ventricular shortening fraction (LVSF) greater than 15% from baseline.
In the first group, the conservative up-titration study, the dogs were treated with weekly increasing oral doses of 0.005, 0.01, 0.03, 0.05 and 0.1 mg/kg bisoprolol fumarate. In the second group, the aggressive up-titration study, the dogs were treated with weekly increasing doses of 0.01, 0.05, 0.1, 0.5 and 1 mg/kg bisoprolol fumarate on top of a dose of 0.5 mg/kg of enalapril, 4 mg/kg of furosemide, and 0.003 mg/kg of digoxin. These two groups were compared to a placebo group that was treated with the same doses of the standard heart failure therapy (enalapril, furosemide and digoxin) alone.

[4] = test system: inward rectifier K+ current (IK1); test: Inward rectifier K+ current recordings in isolated ventricular myocytes of treated dogs; type: in vivo, dog
Excerpt: as §1, with “The inward rectifier K+ current (IK1) is the primary determinant of the resting membrane potential (inward current) and modulates the final phase of repolarization (outward current). Reductions in inward current result in depolarization of the resting potential, while reductions in” for “The transient”, “outward current can contribute to action potential duration prolongation. IK1” for “outward K+ current, (Ito)”, “in each of the” for “in all”, “four groups,” for “four groups and”, “analyzed. The peak outward K+ current was recorded in each of the four groups (FIG. 5 bottom), data was recorded and analyzed.” for “analyzed.”

[5] = aggressive up-titration (HF-A-Up)
[6] = conservative up-titration (HF-C-Up)

## CC(C)NCC(O)COc1ccc(COCCOC(C)C)cc1 (stereo not drawn) [bisoprolol fumarate]
[1]; [5]
  APD50 compared to normal control myocytes: did not differ
  APD50 compared to the placebo-treated heart failure group: statistically significant reduction
  APD90 compared to normal controls: did not differ
  heart failure induced prolongation of the APD90: significantly attenuated
[1]; [6]
  APD50 compared to normal control myocytes: did not differ
  APD50 compared to the placebo-treated heart failure group: statistically significant reduction
  APD90 compared to normal controls: did not differ
  heart failure induced prolongation of the APD90: significantly attenuated
[1]; summary, both conservative and aggressive up-titration dosing regimens, physiologically relevant heart rates
  HF-induced changes in the action potential durations (particularly APD90 prolongation): significantly attenuated and even reversed to the physiological normal
[2]; aggressive up-titration protocol (HF-A-Up Bis)
  effects of heart failure on Ito: did not alter
[2]; conservative up-titration protocol (HF-C-Up Bis), at the two highest test potentials (+40 and +50 mV)
  heart failure induced reductions in Ito: significantly attenuated
[3]; dog, in vivo, po
  tolerance: well tolerated
[3]; doses used in both up-titration groups, dogs with heart failure
  cardioselective β-blockade effect (prolongation of PQ interval and reduction of heart rate): near to maximum cardioselective β-blockade effect
[4]; all four groups
  inward IK1 current conductance, difference between the groups: no difference
[4]; conservative up-titration (HF-C-Up) relative to placebo (HF PL) and HF-A-Up
  peak outward IK1 current: increased
